The record followed here is patent US11466044B2 (WAYNE STATE UNIVERSITY, priority 2017, dated 2022).

In brackets after ≈: the same amount, converted by molar mass. Read-outs that look alike come from different tables or passages of the source. Where only a bound is given, the exact number is not on record here.

Assay [1] has as its system M. abscessus. Kind of assay: MIC by broth microdilution, M. abscessus. It counts as cell-based. The note with it: Mycobacteroides abscessus. (In general: Broth dilution looks for growth in wells or tubes with falling amounts of substance.)
The test system of assay [2] is M. smegmatis SZ380. As to the kind of experiment: MIC by broth microdilution, M. smegmatis. The following applies: Mycolicibacterium smegmatis.
The subject of assay [3] is E coli carrying specific resistance determinants. As to the kind of experiment: MIC by broth microdilution, E coli carrying specific resistance determinants. The following applies: Escherichia coli. It counts as cell-based.
The test system of assay [4] is E coli wild type. As to the kind of experiment: MIC by broth microdilution, wild type E coli. It counts as cell-based. The note with it: Escherichia coli.
For assay [5], the system named is P aeruginosa. Kind of assay: MIC by broth microdilution, P aeruginosa isolates. The class given is cell-based, Pseudomonas aeruginosa. The note with it: strain AG220 Pseudomonas aeruginosa ATCC27853; read-out: MIC AG220 P. aerugin.
Assay [6] relates to Enterobacter cloacae AG290. Kind of assay: MIC by broth microdilution, Enterobacter cloacae. It counts as cell-based. The note with it: strain AG290 Enterobacter cloacae; read-out: MIC AG290 E. cloacae.
Assay [7] relates to Acinetobacter baumannii pittii AG225. As to the kind of experiment: MIC by broth microdilution, Acinetobacter baumannii. The note with it: strain AG225 Acinetobacter baumannii pittii. It counts as cell-based.
Assay [8] relates to Klebsiella pneumonia AG215. As to the kind of experiment: MIC by broth microdilution, Klebsiella pneumonia. The class given is cell-based. The note with it: Klebsiella pneumoniae; strain AG215 Klebsiella pneumonia; read-out: MIC AG215 K. pneumon.
[9] abbreviates: ATCC19977, ATCC 19977 WT, Table 5 (Example 3), read-out: MIC M. abscessus ATCC 19977 WT.
Where [10] appears, read: read-out: MIC M. abscessus clinical isolate.
The mark [11] stands for this setting: read-out: MIC M. abscessus engineered Δeis2.
[12] abbreviates: SZ380, read-out: MIC M. smegmatis SZ380 WT, SZ380 WT, Table 5 (Example 3).
The mark [13] stands for this setting: read-out: MIC E. coli pGB2armA armA.
The mark [14] stands for this setting: read-out: MIC E. coli pH434 AAC(2′)-Ib.
Where [15] appears, read: WT, Table 5 (Example 3), read-out: MIC E. coli WT.
Setting [16] is: ATCC25922, strain AG212 E. coli (ATCC25922), read-out: MIC AG212 E. coli.

Regarding `CCNC1[C@@H](OC2C(N)CC(N)[C@@H](O)[C@H]2O[C@@H]2O[C@H](CO)[C@H](O)C2O)OC(CN)[C@@H](O)[C@@H]1O` (some centres unmarked) [Compound 037], the MIC in assay [1] (setting [9]) is 128 µg/mL (≈ 265 µM); in assay [1] (setting [10]), over 128 µg/mL; in assay [1] (setting [11]), 32 µg/mL (≈ 66.3 µM); in assay [2] (setting [12]), 64 µg/mL (≈ 133 µM); in assay [3] (setting [13]), 64 to 128 µg/mL (≈ 133 to 265 µM); in assay [3] (setting [14]) it was 32 µg/mL (≈ 66.3 µM). Moreover, the MIC in assay [4] (setting [15]) lay in the range of 16 to 32 µg/mL (≈ 33.2 to 66.3 µM).

For `NCC1O[C@H](O[C@@H]2C(O)[C@H](O[C@@H]3C(O)[C@H](N)CC(N)[C@H]3O[C@H]3OC(CO)[C@@H](CCCO)C(O)[C@@H]3N)O[C@@H]2CO)C(N)C(O)[C@@H]1O` (some centres unmarked) [Compound 195], the MIC in assay [5] is 64 µg/mL (≈ 97.3 µM); in assay [6], 4 µg/mL (≈ 6.08 µM); in assay [7], 8 µg/mL (≈ 12.2 µM); in assay [8], 2 to 4 µg/mL (≈ 3.04 to 6.08 µM); in assay [4] (setting [16]), 8 µg/mL (≈ 12.2 µM).

For the molecule `CCO[C@@H]1C(CN)O[C@H](O[C@@H]2C(N)C[C@@H](N)C(O)[C@H]2O[C@@H]2O[C@H](CO)[C@H](OCCN)C2O)[C@@H](N)C1O` (some centres unmarked) [Compound 073], the MIC in assay [5] is over 128 µg/mL; in assay [6], 4 µg/mL (≈ 7.61 µM); in assay [2] (SZ380, read-out: MIC SZ380 M. smegmatis, strain SZ380 Mycobacterium smegmatis), 8 µg/mL (≈ 15.2 µM); in assay [7], 8 µg/mL (≈ 15.2 µM); in assay [8], 4 µg/mL (≈ 7.61 µM); in assay [4] (setting [16]) it was 8 µg/mL (≈ 15.2 µM).

`CCC[C@H]1C[C@H](N)[C@@H](O[C@@H]2C(N)C[C@@H](N)C(O)[C@H]2O[C@@H]2O[C@H](CNC=O)[C@H](O[C@H]3OC(CN)[C@@H](O)C(O)C3N)C2O)OC1CO` (some centres unmarked) [Compound 190]: the MIC was over 64 µg/mL in assay [5]; 16 to 32 µg/mL (≈ 24.5 to 49 µM) in assay [6]; over 64 µg/mL in assay [7]; 32 µg/mL (≈ 49 µM) in assay [8]; 16 µg/mL (≈ 24.5 µM) in assay [4] (setting [16]).

In the case of `CCC(O)C1O[C@H](O[C@@H]2C(N)C[C@@H](N)C(O)[C@H]2O[C@@H]2O[C@H](CO)[C@H](O[C@H]3O[C@@H](CN)[C@@H](O)C(O)C3N)C2O)C(N)[C@@H](O)[C@@H]1O` (some centres unmarked) [Compound 192], the MIC in assay [5] is over 64 µg/mL; in assay [6], 2 to 4 µg/mL (≈ 3.11 to 6.21 µM); in assay [7] it was 8 µg/mL (≈ 12.4 µM); in assay [8], 2 µg/mL (≈ 3.11 µM); in assay [4] (setting [16]) it was 4 µg/mL (≈ 6.21 µM).

For `CN[C@@H]1[C@@H](O)[C@@H](O[C@@H]2[C@@H](O)[C@H](O[C@H]3OC(CNCCO)=CC[C@H]3N)[C@@H](N)C[C@H]2NC(=O)[C@@H](O)CCN)OC[C@]1(C)O` [PLZ, plazomicin, reference compound], the MIC in assay [1] (setting [9]) is 1 µg/mL (≈ 1.69 µM); in assay [1] (setting [10]) it was 4 µg/mL (≈ 6.75 µM); in assay [1] (setting [11]), 1 µg/mL (≈ 1.69 µM); in assay [2] (setting [12]), 0.25 µg/mL (≈ 0.422 µM); in assay [3] (read-out: MIC E. coli AG106 AAC(2′)-Ia) it was 8 to 16 µg/mL (≈ 13.5 to 27 µM); in assay [3] (setting [13]), over 128 µg/mL. Further, the figures for the MIC in assay [3] (setting [14]) and in assay [4] (setting [15]) were 8 µg/mL (≈ 13.5 µM) and 0.5 to 1 µg/mL (≈ 0.844 to 1.69 µM), respectively.

`CCC[C@@H]1C(CNCCO)O[C@H](O[C@@H]2C(N)C[C@@H](N)C(O)[C@H]2O[C@@H]2O[C@H](CNCCO)[C@H](O[C@H]3OC(CN)[C@@H](O)C(O)C3N)C2O)[C@@H](N)C1O` (some centres unmarked) [Compound 193]: the MIC in assay [5] was over 64 µg/mL; in assay [6] it was 2 µg/mL (≈ 2.75 µM); in assay [7], 32 µg/mL (≈ 44 µM); in assay [8], 2 µg/mL (≈ 2.75 µM); in assay [4] (setting [16]) it was 4 µg/mL (≈ 5.5 µM).

The MIC is the least concentration at which growth counts as inhibited.
